In the supplement of paper PMC13380429:
± gives the standard deviation of the averaged measurements.

How the values were obtained:
Conditions in all cases: 72 h
Caco-2 [1] = test: cell viability relative to DMSO; higher = less toxic
Calu-3 [2] = test: as above
HepG2 [3] = test: as above
U2OS [4] = test: as above
Vero E6 [5] = test: as above
Caco-2 [6] = test: relative viability EC50 (midpoint between 100% and the lowest measured viability); higher = less toxic
Calu-3 [7] = test: as above
HepG2 [8] = test: as above
U2OS [9] = test: as above
Vero E6 [10] = test: as above
Caco-2 [11] = test: drug sensitivity score (DSS) for viability; higher = more toxic; extreme values may be limits of the assay
Calu-3 [12] = test: as above
HepG2 [13] = test: as above
U2OS [14] = test: as above
Vero E6 [15] = test: as above

SMILES | cell viability (Caco-2 [1]; 1 nM) [%] | cell viability (Caco-2 [1]; 10 nM) [%] | cell viability (Caco-2 [1]; 100 nM) [%] | cell viability (Caco-2 [1]; 1000 nM) [%] | cell viability (Caco-2 [1]; 10000 nM) [%] | cell viability (Calu-3 [2]; 1 nM) [%] | cell viability (Calu-3 [2]; 10 nM) [%] | cell viability (Calu-3 [2]; 100 nM) [%] | cell viability (Calu-3 [2]; 1000 nM) [%] | cell viability (Calu-3 [2]; 10000 nM) [%] | cell viability (HepG2 [3]; 1 nM) [%] | cell viability (HepG2 [3]; 10 nM) [%] | cell viability (HepG2 [3]; 100 nM) [%] | cell viability (HepG2 [3]; 1000 nM) [%] | cell viability (HepG2 [3]; 10000 nM) [%] | cell viability (U2OS [4]; 1 nM) [%] | cell viability (U2OS [4]; 10 nM) [%] | cell viability (U2OS [4]; 100 nM) [%] | cell viability (U2OS [4]; 1000 nM) [%] | cell viability (U2OS [4]; 10000 nM) [%] | cell viability (Vero E6 [5]; 1 nM) [%] | cell viability (Vero E6 [5]; 10 nM) [%] | cell viability (Vero E6 [5]; 100 nM) [%] | cell viability (Vero E6 [5]; 1000 nM) [%] | cell viability (Vero E6 [5]; 10000 nM) [%] | relative viability EC50 (Caco-2 [6]) [µM] | relative viability EC50 (Calu-3 [7]) [µM] | relative viability EC50 (HepG2 [8]) [µM] | relative viability EC50 (U2OS [9]) [µM] | relative viability EC50 (Vero E6 [10]) [µM] | drug sensitivity score (Caco-2 [11]) | drug sensitivity score (Calu-3 [12]) | drug sensitivity score (HepG2 [13]) | drug sensitivity score (U2OS [14]) | drug sensitivity score (Vero E6 [15])
O=C1CN=C(c2cccc(Br)c2)c2oc3ccccc3c2N1 [5-BDBD] | 101 | 96.6 | 102 | 106 | 97 | 103 | 97.2 | 112 | 96.8 | 111 | 98.3 | 100 | 94.4 | 96.8 | 92.5 | 104 | 97.5 | 95.5 | 99.7 | 101 | 96.7 | 92.8 | 94.6 | 93.5 | 95.9 | > 10 | > 10 | > 10 | > 10 | > 10 | 0 | 0 | 0 | 0 | 0
Cc1n[nH]c2ccc(-c3cncc(OC[C@@H](N)Cc4ccccc4)c3)cc12 | 96.7 | 102 | 97.8 | 92.2 | 27.3 | 105 | 102 | 93.4 | 103 | 41.3 | 103 | 95.8 | 106 | 53 | 1.7 | 99.6 | 99.8 | 97.7 | 88.3 | 2.8 | 101 | 106 | 96.3 | 66 | 5 | 2.28 | 3.43 | 1.04 | 2.18 | 1.3 | 5.3 | 2.9 | 11.3 | 7.3 | 9.7
CC(=O)Nc1cccc(-n2c(=O)n(C3CC3)c(=O)c3c(Nc4ccc(I)cc4F)n(C)c(=O)c(C)c32)c1 [trametinib] | 80.4 | 65.4 | 40.6 | 21.3 | 16 | 94.8 | 73.6 | 62 | 33.8 | 24.8 | 99.3 | 45.5 | 30.5 | 25.3 | 23.2 | 99.3 | 91.9 | 89.7 | 60.8 | 29.3 | 101 | 94.2 | 67.9 | 15.7 | 15.8 | 0.0156 | 0.0536 | 0.0064 | 0.695 | 0.129 | 26.5 | 19 | 30.5 | 9 | 19.2
CC12CCC(CC1=O)C2(C)C (stereo not drawn) [camphor-(+)] | 95.2 ± 8.1 | 90.5 ± 0.99 | 99.2 ± 3.3 | 93.8 ± 7.3 | 99.3 ± 6.2 | 86 | 101 | 102 | 112 | 112 | 95.8 ± 3.6 | 104 ± 13 | 96.1 ± 0.42 | 98.2 ± 1.8 | 96.6 ± 14 | 101 ± 2.5 | 101 ± 6 | 99.8 ± 0.42 | 101 ± 5.5 | 99.8 ± 3.1 | 96.9 ± 3.2 | 98.5 ± 2.7 | 99.2 ± 4.2 | 96.7 ± 2 | 101 ± 9.5 | > 10 | > 10 | > 10 | > 10 | > 10 | 0 | 0 | 0.15 ± 0.21 | 0 | 0
CONC(=N)c1ccc(-c2ccc(-c3ccc(C(=N)NOC)cc3)o2)cc1 [pafuramidine] | 92.3 | 97 | 92.5 | 97.5 | 87.9 | 98.3 | 97.4 | 95.4 | 96 | 98.5 | 94.4 | 106 | 99.2 | 92.9 | 110 | 99.1 | 99.8 | 96.9 | 102 | 98.9 | 98.2 | 97.5 | 96 | 93.9 | 107 | > 10 | > 10 | > 10 | > 10 | > 10 | 0 | 0 | 0 | 0 | 0
Cc1cc(O)c2c(=O)c3c(O)cc(O)c4c5c(O)cc(O)c6c(=O)c7c(O)cc(C)c8c1c2c(c34)c(c78)c65 [hypericin] | 104 | 101 | 104 | 99.4 | 98.3 | 106 | 101 | 94 | 110 | 79.7 | 108 | 106 | 103 | 101 | 81.9 | 102 | 94.6 | 91.2 | 96.2 | 77.1 | 96.3 | 91.3 | 101 | 80.7 | 95.7 | > 10 | > 10 | > 10 | > 10 | > 10 | 0 | 0.3 | 0.4 | 1.4 | 0
Oc1nc(O)c2nc(O)[nH]c2n1 [uric-acid] | 96.5 | 98 | 92.6 | 91 | 95.9 | 96 | 95.3 | 93.5 | 98.4 | 101 | 94.7 | 97.1 | 95.9 | 92.5 | 96 | 101 | 107 | 99.6 | 102 | 98.4 | 98 | 104 | 97.9 | 102 | 98.4 | > 10 | > 10 | > 10 | > 10 | > 10 | 0 | 0 | 0 | 0 | 0
